Columns and labels:
SH-SY5Y cells = assay: Cytotoxicity of CAR T cells in presence of Compound A gradient; type: cell-based, human; conditions: 0.04-30 μM Compound A, E:T 0.2:1, 20 hours, FIG. 10
Protocol: To evaluate if Compound A influence to the cytotoxicity of CAR T against tumor cell, Compound A (CAS Number:191732-72-6, Sigma-Aldrich, St. Louis) stock was serially diluted to final concentration of 30, 10, 3.33, 1.11, 0.37, 0.12 and 0.04 μM using complete growth medium. In the presence of Compound A gradient, CAR T cells were co-incubated with tumor cells at an effector (CAR T) to target cell ratio of 0.2:1 for 20 hours. CAR T cells and tumor cells co-cultured without addition of Compound A served as a control. Cytotoxicity of CAR T cells on tumor cells was estimated using the Cytotoxicity Detection Kit (LDH) (Roche, #11644793001) as described in Example 6.

SH-SY5Y tumor cells = assay: In vitro repetitive challenge assay with Compound A; type: cell-based, human
Protocol: To evaluate the effect of 3-(4-amino-1-oxo-1,3 dihydro-2H-isoindol-2-yl)piperidine-2,6-dione (Compound A) on CAR T cell recursive killing potential, T cell expansion and survival, an in vitro repetitive challenge assay was employed. Exemplary CAS70950VH6-BBz CAR T cells on day 11 post-transduction were co-cultured with SH-SY5Y tumor cells at an effector (CAR T) to target cell ratio of 1:2. The co-culture media was supplemented with 10 μM Compound A throughout this study. CAR T cells were re-challenged with tumor cells every 3 days (round 1, round 2, round 3 and round 4). CAR T cells and tumor cells co-cultured without addition of Compound A was used as a control. The percentages of CD3^+ T cells, percentages of CD3^+CAR^+ T cells were analyzed by flow cytometer. The amount of IFNγ in the co-culture supernatant was quantified using HTRF human IFNγ AlphaLISA kit (Perkin Elmer, #62HIFNGPEH) as described in Example 6.

[1] = test system: neuroblastoma SH-SY5Y xenograft; conditions: mouse, in vivo
[2] = test system: neuroblastoma SH-SY5Y xenograft; assay: In vivo combination of Compound A and CAR T cells in SH-SY5Y xenograft; conditions: FIG. 12A

Nc1cccc2c1CN(C1CCC(=O)NC1=O)C2=O (stereo not shown) [Compound A, 3-(4-amino-1-oxo-1,3 dihydro-2H-isoindol-2-yl)piperidine-2,6-dione]
effect of Compound A on cytotoxicity of CAS70950VH6-BBz CAR T cells against SH-SY5Y (SH-SY5Y cells): not impaired | IFNγ released from CAS70950VH6-BBz CAR T cells compared to non-treated CAR T cells (SH-SY5Y tumor cells; 10 μM Compound A): higher amount of IFNγ | CD3+CAR+ T cells survival and expansion after repetitive tumor challenges (SH-SY5Y tumor cells; CAS70950VH6-BBz CAR T cells with 10 μM Compound A, FIG. 11A-11B): promoted CD3^+CAR^+ T cells survival and expansion | effector activity of CAS70950VH6-BBz CAR T cells after repetitive tumor challenges (SH-SY5Y tumor cells; supplemented with 10 μM Compound A, FIG. 11A-11B): maintained their effector activity | promotion of CAR+ T cells expansion by Compound A co-administration [1]: about 6 fold | tumor regression, Compound A in combination with CAS70950VH6-BBz CAR-T cells ([2]; Compound A 7.5 mg/kg i.p. 21 days plus 1.5×10^6 CAR+ T cells): more pronounced tumor regression | tumor growth, single treatment ([2]; twelve days after treatment, CAR T 1.5×10^6 i.v. or Compound A 7.5 mg/kg i.p. for 21 days): did not achieve any tumor suppression
